What all share (assay): NCI-60 cell line screen, 48 h
Assay [1] has as its system HOP-62 NSCLC.
Assay [2] relates to HOP-92 NSCLC.
The test system of assay [3] is MDA-MB-231 breast.
Assay [4] relates to SF-295 CNS.
For assay [5], the system named is SK-MEL-5 melanoma.
The subject of assay [6] is SN12C renal.
Assay [7] deals with SNB-19 CNS.
For assay [8], the system named is TK-10 renal.
The test system of assay [9] is MALME-3M melanoma.
Assay [10] deals with SR leukemia.

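Dose response: 5 concentrations. Exposure: 48 h. Format: 96-well plates. Endpoint: linear interpolation; highest concentration if not reached. GI50 = concentration required for 50% inhibition of growth. TGI: total growth inhibition.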

The source of these data is PubChem BioAssay (NCI).

On to `C=CCN=C(N/N=C/c1ccc([N+](=O)[O-])o1)NS(=O)(=O)c1cc(C(=O)Nc2ccccc2)c(Cl)cc1SCC(N)=O`, for which the GI50 was 53.9 µM in assay [1]; 13.6 µM in assay [2]; 14 µM in [3]; more than 100 µM in [4]; 5.45 µM in assay [5]; 29 µM in assay [6]. Also, the GI50 in assay [7] was 33.8 µM; in assay [8], 51.8 µM. Besides, the TGI in assay [1] was more than 100 µM; in [2] it was 52.2 µM; in [3] it was 50.8 µM; in [4], more than 100 µM; in assay [5], 18.3 µM; in assay [6], more than 100 µM. The TGI in assay [7] and in [8] was more than 100 µM throughout.

As to `O=C(/C(=C/c1ccc(O)cc1)c1ccccc1)c1ccccc1`, the TGI was determined as 33.9 µM in assay [1]; 18.3 µM in assay [2]; 37.1 µM in assay [9]; 33.4 µM in assay [4]; 28.3 µM in [5]; 32.5 µM in assay [6]. For the same compound, the TGI was determined as 61.2 µM in [10] and 48.5 µM in [8].

Turning to `[Cl-].[Gd+3].[O-]/N=C(\c1ccccc1)c1ccccn1.[O-]/N=C(\c1ccccc1)c1ccccn1.[O-]/N=C(\c1ccccc1)c1ccccn1`, the GI50 in assay [1] is 41.8 µM; in assay [2], more than 100 µM; in assay [9], 95.8 µM; in [4], 36.6 µM; in assay [5], 48.9 µM; in [6] it was 66.8 µM. For the same compound, the figures for the GI50 in [7] and in assay [8] were 93.2 µM and 34.9 µM, respectively. Further, the TGI in assay [1], in assay [2], in [9], in [4], in assay [5] and in assay [6] was more than 100 µM in each case. Besides, the TGI in [7] and in [8] was more than 100 µM throughout.

Take `COC(=O)c1sc(=NC(=S)N2CCCCC2)sc1C(=O)OC`: the TGI in assay [1], in [9], in assay [5], in assay [6], in [7] and in assay [10] was more than 100 µM throughout. The TGI in assay [8] was more than 100 µM.

Consider `Cc1ccc(C2=C(Cl)C(=O)C(c3ccc(C)cc3)=C(Cl)C2=O)cc1`, for which the TGI in assay [1], in assay [2], in [9], in assay [4], in assay [5] and in assay [6] was more than 100 µM each time. The TGI in assay [7], in [10] and in assay [8] was more than 100 µM throughout.

Consider `COC(=O)C1CCC(=O)N1/C(C)=N/NC(=O)Nc1ccc(Cl)c(Cl)c1` (configuration not stated), for which the TGI in [1], in assay [2], in assay [4], in [5], in assay [6] and in assay [7] was more than 100 µM throughout. The TGI in [10] and in assay [8] was more than 100 µM each time.

Turning to `c1ccc2c3c([nH]c2c1)C1C2CCCCN2C(c2ccncc2)N1CC3` (configuration not stated), the TGI in assay [1] was more than 100 µM; in assay [9] it was more than 100 µM; in assay [4], more than 100 µM; in assay [5] it was more than 100 µM; in [6], more than 100 µM; in assay [7] it was 65.3 µM. In addition, in assay [10], the TGI is more than 100 µM.

`COC(=O)CC1CC2(C(=O)OC)c3[nH]c4ccccc4c3CCN2C1=O` (configuration not stated): the TGI in assay [1], in assay [2], in assay [9], in [4], in [5] and in [6] was more than 100 µM in each case. Further, the TGI in assay [7], in assay [10] and in assay [8] was more than 100 µM throughout.

Turning to `O=c1cccccc1[O-].O=c1cccccc1[O-].O=c1cccccc1[O-].[Sm+3]`, the values for the GI50 in assay [1] and in [6] were 37.1 µM and 26.8 µM, respectively. Besides, the TGI in [1] is more than 100 µM; in [2] it was more than 100 µM; in assay [9], more than 100 µM; in [4] it was more than 100 µM; in assay [5] it was 89.9 µM; in assay [6], more than 100 µM. For the same compound, the TGI in assay [7] and in assay [8] was more than 100 µM each time.

For the compound `O=C(c1ccccc1)C(Br)C(Br)c1ccccc1` (configuration not stated), the GI50 was 2.53 µM in assay [2]; 2.02 µM in assay [9]; 14 µM in [3]; 11.9 µM in assay [4]; 12.6 µM in [5]; 10.4 µM in [6]. Further, the values for the GI50 in assay [7] and in [8] were 12.7 µM and 1.59 µM, respectively. In addition, the TGI in [2] turned out to be 6 µM; in assay [9] it was 4.31 µM; in assay [3] it was 29 µM; in assay [4], 27.7 µM; in assay [5], 25.6 µM; in assay [6] it was 22.6 µM. For the same compound, the TGI in [7] was determined as 25.7 µM; in [8] it was 3.01 µM.

`CC(=O)[O-].[Mn+3].[O-]c1ccc(Cl)cc1C=NCCN=Cc1cc(Cl)ccc1[O-]`: the GI50 in [9] is 34.7 µM; in assay [4], more than 100 µM; in assay [5] it was 88.5 µM; in assay [6] it was more than 100 µM; in [7], more than 100 µM; in assay [8], more than 100 µM. The TGI in [9], in assay [4], in assay [5], in assay [6], in assay [7] and in assay [8] was more than 100 µM each time.

On to `C=C1CC/C=C(\C)CC[C@H](C(=C)C)[C@@H](O)/C=C(/CO)CCC1O` (some centres not stated), for which the GI50 was more than 100 µM in assay [1]; more than 100 µM in [3]; 71.9 µM in assay [4]; 35.1 µM in [5]; more than 100 µM in assay [6]; more than 100 µM in [7]. Further, in [8], the GI50 was 17.4 µM. For the same compound, the TGI in assay [1], in assay [3], in assay [4], in [5], in [6] and in assay [7] was more than 100 µM each time. In assay [8], this compound registered a TGI of 68.7 µM.
